Assay results: patent publication US20110105623A1 (Biogenic Innovations, LLC, priority 2009, published 2011)

Tests used:
Lactobacillus rhamnosus = assay: Growth in MRS broth fortified with MSM; assay type: cell-based; conditions: for Growth: 0.04% MSM in MRS broth, 0-72 hours
Experimental: Each organism (Lactobacillus rhamnosus, Lactobacillus acidophilus, and Bifidobacterium bifidum) was grown in MRS bacterial growth medium (broth) and plated on MRS agar at different time intervals. Results are expressed in colony forming units per milliliter (cfu/mL).
The 0.1% and 0.04% test concentrations were prepared by making a 1:10 dilution of the 1% and 0.4% test solutions. Once each set of test media was plated for sterility, they were inoculated at a level of 100 μl of inoculum per 100 g or mLs of test broth (1:1000 inoculum dilutions) with each respective microorganism. All bacterial organisms were incubated at 35° C.+/−2° C. for the duration of the study.
All samples were plated on MRS agar at time 0, 12, 36, 48, 60 and 72 hours (+/−45 minutes). All preparations and plating were conducted at room temperature. All plating events were incubated at 35° C.+/−2° C. for at least 2 days or 3 days for Bifidobacterium. Test samples were plated in triplicate at each test date and the averages are reported.

Bacillus coagulans = assay: Growth in simulated gastric acid supplemented with MSM; assay type: cell-based

Methylsulfonylmethane [MSM]
1.8 × 10^9 cfu/mL: Growth (Lactobacillus rhamnosus; 36 hours after inoculation)
2.1 × 10^7 cfu/mL: Growth (Lactobacillus rhamnosus; 12 hours after inoculation)
2.1 × 10^9 cfu/mL: Growth (Lactobacillus rhamnosus; 48 hours after inoculation)
2.6 × 10^9 cfu/mL: Growth (Lactobacillus rhamnosus; 60 hours after inoculation)
1.5 × 10^9 cfu/mL: Growth (Lactobacillus rhamnosus; 24 hours after inoculation)
1.7 × 10^6 cfu/mL: Growth (Lactobacillus rhamnosus; 0 hours after inoculation)
0 logs: Log Growth of Bacillus coagulans average (Bacillus coagulans; 5% MSM, 3 hours) | Log Growth of Bacillus coagulans in duplicate (Bacillus coagulans; 5% MSM, 3 hours) | Log Growth of Bacillus coagulans average (Bacillus coagulans; 5% MSM, 6 hours) | Log Growth of Bacillus coagulans in duplicate (Bacillus coagulans; 5% MSM, 6 hours) | Log Growth of Bacillus coagulans average (Bacillus coagulans; 5% MSM, 9 hours) | Log Growth of Bacillus coagulans in duplicate (Bacillus coagulans; 5% MSM, 9 hours) | Log Growth of Bacillus coagulans average (Bacillus coagulans; 5% MSM, 12 hours) | Log Growth of Bacillus coagulans in duplicate (Bacillus coagulans; 5% MSM, 12 hours) | Log Growth of Bacillus coagulans average (Bacillus coagulans; 5% MSM, 24 hours) | Log Growth of Bacillus coagulans in duplicate (Bacillus coagulans; 5% MSM, 24 hours) | Log Growth of Bacillus coagulans average (Bacillus coagulans; 5% MSM, 48 hours) | Log Growth of Bacillus coagulans in duplicate (Bacillus coagulans; 5% MSM, 48 hours) | Log Growth of Bacillus coagulans in duplicate (Bacillus coagulans; […] MSM, 0 hours) | Log Growth of Bacillus coagulans in duplicate (Bacillus coagulans; […] MSM, 3 hours) | Log Growth of Bacillus coagulans average (Bacillus coagulans; […] MSM, 9 hours) | Log Growth of Bacillus coagulans in duplicate (Bacillus coagulans; […] MSM, 9 hours) | Log Growth of Bacillus coagulans in duplicate (Bacillus coagulans; […] MSM, 12 hours) | Log Growth of Bacillus coagulans average (Bacillus coagulans; […] MSM, 15 hours) | Log Growth of Bacillus coagulans in duplicate (Bacillus coagulans; […] MSM, 15 hours) | Log Growth of Bacillus coagulans average (Bacillus coagulans; […] MSM, 24 hours) | Log Growth of Bacillus coagulans in duplicate (Bacillus coagulans; […] MSM, 24 hours) | Log Growth of Bacillus coagulans average (Bacillus coagulans; […] MSM, 48 hours) | Log Growth of Bacillus coagulans in duplicate (Bacillus coagulans; […] MSM, 48 hours)
47%: higher than 0% control (Lactobacillus rhamnosus; first 12 hours, 1% MSM)
0.26 logs: Log Growth of Bacillus coagulans average (Bacillus coagulans; 5% MSM, 0 hours) | Log Growth of Bacillus coagulans average (Bacillus coagulans; 5% MSM, 15 hours) | initial recovery, average (Bacillus coagulans; […] and 5.0% MSM)
at least 12%: recovered more than the 0% control (Lactobacillus rhamnosus; first 12 hours, all MSM samples)
41%: higher than 0% control (Lactobacillus rhamnosus; first 12 hours, 0.2% MSM)
